Patent US20220079912A1, “ANTICANCER FORMULATION” (University of Mississippi, priority 2018, published 2022)

Experiments:
T98G cells [1] = test: Combination cytotoxicity with mitochondrial complex I inhibitors (% cell survival)
Text: Example 2: Gnetin H In Combination with Mitochondrial Complex I Inhibitors. […] The plus signs above the combination treatment bars indicates the value of % cell survival if the anti-proliferative effect was additive.
In FIGS. 9 A-B., the plus signs are placed above the combination treatment bars at the % cell survival value if the anti-proliferative effect was additive. […] Both T98G and MDA-MB-231 cells lack functional p53 but B16 are p53 wild type.
Example 4: Peony Seed extract. […] T98G cells were treated with different concentrations of purified GH (numbers indicate μM) or PSE (numbers indicate μg/ml) alone or in combination with a Paw Paw (PP) extract (2 μg/ml) for 48 hrs (FIG. 12 A). The plus signs are placed above the combination treatment bars at the % cell survival value if the anti-proliferative effect was additive. […] T98G cells were treated with different concentrations of purified GH or PSE in combination with a Paw Paw extract (2 μg/ml) for 48 hrs (FIG. 12 B).

[2] = system: T98G human glioblastoma cells; test: Lactic acid accumulation in cell culture medium; assay type: cell-based; settings: three hour period; for inhibition of lactic acid production (accumulation): different concentrations, FIG. 6, FIG. 7
Text: Acidification of the cell culture medium occurs because of the enhanced use of glycolysis by transformed cells (and resulting increase in lactic acid production). This led us to investigate whether GH reduced lactic acid levels in the cell culture medium.

TXNIP protein levels [3] = test: Western blot of TXNIP protein, MDA-MB-231 cell line; assay type: cell-based, human; settings: FIG. 16, FIG. 18; for TXNIP protein levels, agent alone: GH 8 μM 6 hrs or 3 hrs, 2-DG 25 mM, OXA 25 mM, BPX 25 μM, DCA 25 mM, 6 hr
Text: (§1) AMPK activation has been previously shown to phosphorylate and cause the degradation of TXNIP during energy stress (13).

ARRDC4 mRNA = test: Differential gene expression analysis (RNA-Seq) in T98G cells; assay type: cell-based, human; settings: 2 hours, GH 8 μM, 2-DG 25 mM, Ph 100, minus = reduced, plus = increase, NC = no change
Text: (§2) GH inhibits expression of TXNIP and ARRDC4 mRNAs. […] Since the transcription factors (MondoA/Mlx complex) regulating the expression of the TXNIP gene is thought to be controlled by intermediates in the upper portion of the glycolytic pathway (12), GH may be negatively impacting this portion of glycolysis. Reduction in the levels of these intermediates by GH would prevent activation of the MondoA/Mlx transcription complex and would result in suppression of TXNIP transcription and TXNIP mRNA levels. Both of these gene products (TXNIP and ARRDC4) are thought to suppress glucose transport by enhancing degradation of glucose transporters (12).

TXNIP protein levels [4] = test: Western blot of TXNIP protein, T98G cell line; assay type: cell-based, human; settings: FIG. 15, FIG. 17; for TXNIP protein levels, agent alone: GH 8 μM 6 hrs or 3 hrs, 2-DG 25 mM, OXA 25 mM, BPX 25 μM, DCA 25 mM, 6 hr
Text: as §1

B16 cells [5] = test: Lactic acid export (intracellular lactic acid levels); assay type: cell-based, mouse; settings: 3 hours, FIG. 4
Procedure: To prevent the buildup of lactic acid within the cell a family of monocarboxylate transporters (MCT) functions to transport lactic acid out of the cell (10). To determine if GH inhibits lactic acid export from the cell, and in this manner inhibits the accumulation of lactic acid in the cell culture medium, intracellular lactic acid levels were measured. If GH inhibited lactic acid export, treatment of cells with GH would result in the increase in intracellular lactic acid levels. As a positive control the MCT1 inhibitor AZD3965 was used.

TXNIP mRNA = test: Differential gene expression analysis (RNA-Seq) in T98G cells; assay type: cell-based, human; settings: 2 hours, GH 8 μM, 2-DG 25 mM, Ph 100, minus = reduced, plus = increase, NC = no change
Text: as §2

B16 cells [6] = test: Glucose transport (2-NBDG accumulation); assay type: cell-based, mouse; settings: B16, treated for one hour followed by 2-NBDG for one hour
MDA-MB-231 cells = test: Glucose transport (2-NBDG accumulation); assay type: cell-based, human; settings: MDA-MB-231, treated for one hour followed by 2-NBDG for one hour
Text: Phloretin, a known glucose transport inhibitor, was used as a positive control. Accumulation of 2-NDGB was inhibited by phloretin by 54% in T98G cells, by 31% in B16 cells and by 74% in MDA-MB-231 cells. The first panel for each cell line represents unstained cells, the second stained with 2-NBDG for one hour, the third treated with GH for one hour followed by 2-NBDG for one hour and the fourth treated with phloretin for one hour followed by 2-NBDG for one hour.

T98G cells [7] = test: Glucose transport (2-NBDG accumulation); assay type: cell-based, human; settings: treated for one hour followed by 2-NBDG for one hour

## Oc1ccc(/C=C/c2cc(O)cc3c2[C@@H](c2cc(O)cc(O)c2)[C@H](c2ccc(O)cc2)O3)cc1 (relative stereo) [Vin, trans-ε viniferin, reference compound]
T98G cells [1]
  synergistic cytotoxicity in combination with phenformin (Ph) at 100 μM: did not mimic GH activity
[2]; 40 μM, FIG. 6
  inhibition of lactic acid production: 40%

## O=CC[C@@H](O)[C@H](O)[C@H](O)CO [2-DG, 2-deoxyglucose]
T98G cells [1]
  synergistic cytotoxicity in combination with phenformin (Ph) at 100 μM: not synergistically cytotoxic
TXNIP protein levels [3]
  TXNIP protein levels, in combination with Ph: reduction of TXNIP protein levels
  TXNIP protein levels, agent alone: increased TXNIP protein levels
ARRDC4 mRNA
  ARRDC4 mRNA fold change: +3 fold
TXNIP protein levels [4]
  TXNIP protein levels, in combination with Ph: reduction of TXNIP protein levels
  TXNIP protein levels, agent alone: increased TXNIP protein levels

## Cc1[nH]nc(C(F)(F)F)c1Cc1sc2c(c1C(=O)N1C[C@](C)(O)CO1)c(=O)n(C)c(=O)n2C(C)C [AZD3965, reference compound]
B16 cells [5]
  accumulation of intracellular lactic acid above control values: ~4 fold

## O=C(O)C(=O)CBr [BPX, 3-bromopyruvate]
TXNIP protein levels [3]
  TXNIP protein levels, in combination with Ph: reduced TXNIP protein levels
  TXNIP protein levels, agent alone: do not substantially reduce TXNIP protein levels
TXNIP protein levels [4]
  TXNIP protein levels, in combination with Ph: reduced TXNIP protein levels
  TXNIP protein levels, agent alone: do not substantially reduce TXNIP protein levels

## CC(=O)N[C@@H](CS)C(=O)O [NAC, n-acetylcysteine]
[2]
  inhibition of lactic acid production (accumulation): did not inhibit lactic acid production

## [H]/N=C(/N)N/C(=N/[H])NCCc1ccccc1 [Ph, phenformin, reference compound]
TXNIP mRNA
  TXNIP mRNA fold change: −2.5 fold

## Oc1ccc(C=Cc2cc(O)cc(O)c2)cc1 [Res, Resveratrol]
[2]
  inhibition of lactic acid production (accumulation): did not inhibit lactic acid production

## O=C(CCc1ccc(O)cc1)c1c(O)cc(O)cc1O [phloretin, Phloretin, reference compound]
B16 cells [6]
  inhibition of accumulation of 2-NBDG: 31%
MDA-MB-231 cells
  inhibition of accumulation of 2-NBDG: 74%
T98G cells [7]
  inhibition of accumulation of 2-NBDG: 54%
